From paper PMC9078697, “Discovery and preliminary SAR of 14-aryloxy-andrographolide derivatives as antibacterial agents with immunosuppressant activity” (RSC Advances, 2018)
Like-named read-outs stand apart in the source and are kept apart here.

Columns and labels:
[1] = tested on: TLR4/NF-κB signaling pathway; experiment: TLR4/NF-κB luciferase reporter assay in AD-293 cells; format: cell-based; details: AD-293 reporter cells, 1 μg mL−1 LPS, treated for 16 h
From the text: (§1) We utilized luciferase reporters bearing the promoter regions of TNF-α/NF-κB, TLR4/NF-κB, and IL-6/STAT3 ([ref. 25]) to examine the activities of the antibacterial active andrographolide analogs in the regulation of signaling pathways that govern inflammatory response (Table 2). […] Like their similarity in inhibitory activity against E. faecalis, E. coli and S. aureus (Table 1), 3-keto-19-alcohol compound 9b1 suppresses three signaling pathways in the same fashion as 6b17 (Table 2). […] Cells from the AD-293 cell line, a derivative of the HEK293 cell line with improved adherence and plaque formation properties, were purchased from Stratagene (La Jolla, CA, USA). The protocols were adopted and modified from our previous report.[25] All compounds were dissolved in DMSO at 10 mM as a stock solution. The final concentration of DMSO was 0.1% in the culture medium. AD-293 cells bearing luciferase reporters with promoter regions of IL-6/STAT3 and TNF-α/NF-κB in pGL4.20 vector (Promega) were maintained in DMEM high glucose medium supplemented with 10% FBS and 1% penicillin streptomycin in the presence of 1 μg mL^−1 puromycin. AD-293 cells overexpressing TLR4 and stably transfected with NF-κB reporter were maintained in DMEM high glucose medium in the presence of 1 μg mL^−1 puromycin and 10 μg mL^−1 blasticidin. All cells were maintained in a humidified incubator at 37 °C in 95% air and 5% CO2. Reporter cells were treated with 50 ng mL^−1 TNF-α to stimulate the NF-κB signaling pathway, 1 μg mL^−1 LPS to stimulate the TLR4/NF-κB signaling pathway, and 2.5 μg mL^−1 IL-6 to stimulate the IL-6/STAT3 signaling pathway. The medium was removed at the end of the treatment, cell extracts were prepared, and the luciferase activity was measured using a Luciferase assay kit (Promega) according to the manufacturer's instructions. EC50 was defined as the concentration of drug that inhibited stimulator-triggered luciferase reporter activation by 50% after continuous drug exposure for 4 (TNF-α/NF-κB) or 16 (IL-6/STAT3 and TLR4/NF-κB) hours. Each concentration was repeated 3 times independently.

[2] = Cytotoxicity (MTT) in AD-293 cells; format: cell-based; details: human, AD-293 cells (HEK293 derivative), treated for 24 h
S. aureus = experiment: Bacteriostatic screening (growth, OD630) against S. aureus; format: cell-based; details: for IC50 / inhibition at 250 µM: Staphylococcus aureus; for IC50: 24 h, IC50 generated when inhibition at 250 μM was higher than 80%; for inhibition rate (%) SA / inhibition at 250 µM: at 250 μM of the tested compound; for inhibition at 250 µM: read-out: inhibition rate (%) SA; for inhibition rate SA (symbol /): at 250 μM of tested compound
Experimental: (§2) The strategy in this study was to submit these synthesized compounds to a preliminary screening test against E. coli, S. aureus and E. faecalis (ciprofloxacin was used as a reference compound; see Table 1). […] The tested compound or ciprofloxacin (positive drug) was dissolved in DMSO and diluted with LB liquid medium into a stock solution containing 20% DMSO before use; the stock solution of the carrier was 20% DMSO in LB liquid medium. All the experiments, including blank controls, were performed in triplicate. Bacteriostatic screening was performed by applying a modified protocol of the National Committee on Clinical Laboratory Standards (NCCLS).[29] Briefly, E. coli, S. aureus and E. faecalis cells (American Type Culture Collection, ATCC) were grown in LB plate medium for one passage, then seeded in LB liquid medium and cultured at 37 °C for 12 h. After being diluted 1000 times, 190 μL diluted cells were aliquoted to 96-well plates; then, 10 μL stock solution of carrier or a gradient amount of the tested compound or the positive compound, ciprofloxacin, were added; the final concentration of DMSO was 1% in all wells. The blank controls contained 1% DMSO and LB medium but no bacterial cells.

[3] = tested on: TNF-α/NF-κB signaling pathway; experiment: TNF-α/NF-κB luciferase reporter assay in AD-293 cells; format: cell-based; details: AD-293 reporter cells, 50 ng mL−1 TNF-α, treated for 4 h
From the text: as §1

[4] = tested on: IL-6/STAT3 signaling pathway; experiment: IL-6/STAT3 luciferase reporter assay in AD-293 cells; format: cell-based; details: AD-293 reporter cells, 2.5 μg mL−1 IL-6, treated for 16 h
From the text: as §1

E. faecalis = experiment: Bacteriostatic screening (growth, OD630) against E. faecalis; format: cell-based; details: for IC50: 24 h, IC50 generated when inhibition at 250 μM was higher than 80%; for inhibition rate (%) EF: at 250 μM of the tested compound
Experimental: as §2

E. coli = experiment: Bacteriostatic screening (growth, OD630) against E. coli; format: cell-based; details: for IC50 / inhibition at 250 µM: Escherichia coli; for IC50: 24 h, IC50 generated when inhibition at 250 μM was higher than 80%; for inhibition rate (%) EC / inhibition at 250 µM: at 250 μM of the tested compound; for inhibition at 250 µM: read-out: inhibition rate (%) EC; for inhibition rate EC (symbol /): at 250 μM of tested compound
Experimental: as §2

[5] = tested on: IL-6/STAT3 signaling pathway; set-up: method as in PMID 28680097; details: AD-293 reporter cells; treated for 16 h; cited from earlier work
AD-293 cells [6] = tested on: AD-293 cells; set-up: method as in PMID 28680097; details: treated for 24 h; cited from earlier work
[7] = tested on: TLR4/NF-κB signaling pathway; set-up: method as in PMID 28680097; details: AD-293 reporter cells; treated for 16 h; cited from earlier work
[8] = tested on: TNF-α/NF-κB signaling pathway; set-up: method as in PMID 28680097; details: AD-293 reporter cells; treated for 4 h; cited from earlier work
AD-293 cells [9] = experiment: Cytotoxicity (MTT) in AD-293 cells; format: cell-based; details: treated for 24 h

With `C=C1CC[C@@H]2[C@](C)(CO)[C@H](O)CC[C@@]2(C)[C@@H]1C/C=C1/C(=O)OC[C@@H]1Oc1cccc2cccnc12` [6b17, (14β)-(Quinolyl-8′-oxy)andrographolide] the EC50 ([1]; Homo sapiens, AD293) was 2.65 ± 0.07 µM, the CC50 at 24 h [2] was > 10 µM and the IC50 (S. aureus) was 37.5 ± 2.2 µM. It also gave an EC50 ([3]; Homo sapiens, AD293) of 2 ± 0.28 µM, an EC50 ([4]; Homo sapiens, AD293) of 2.41 ± 0.31 µM and an IC50 (E. faecalis; Enterococcus faecalis) of 6.3 ± 1.5 µM. For the same compound, the “times more active than 5b17 against E. faecalis” value (E. faecalis; versus 5b17) was 3 times, the IC50 (E. coli) was 21.6 ± 1.7 µM and the melting point was 134 to 136 °C.

For `C=C1CC[C@H]2[C@@](C)(CCC(=O)[C@@]2(C)CO)[C@@H]1C/C=C1/C(=O)OC[C@@H]1Oc1cccc2cccnc12` [9b, (14β)-(quinolyl-8′-oxy)-3-keto andrographolide], the EC50 ([1]; Homo sapiens, AD293) was 5.96 ± 0.03 µM, the CC50 at 24 h [2] was > 10 µM and the IC50 (S. aureus) was 27.6 ± 1.8 µM. It also gave an EC50 ([3]; Homo sapiens, AD293) of 2.03 ± 0.01 µM, an EC50 ([4]; Homo sapiens, AD293) of 6.13 ± 0.39 µM and an IC50 (E. faecalis; Enterococcus faecalis) of 9.1 ± 2.1 µM. For the same compound, the IC50 (E. coli) was 27.9 ± 1.5 µM and the melting point was 141 to 143 °C.

In the case of `C=C1CCC2C(C)(CO)C(O)CCC2(C)C1CC=C1C(=O)OCC1Oc1ccc([N+](=O)[O-])cc1OC` (stereo not drawn) [6b3, (14β)-(2′-Methoxy-4′-nitro)phenoxy-andrographolide], the “inhibition rate (%) SA” value (S. aureus; 250 µM) is listed as “(44) %”, the EC50 [5] is listed as > 10 µM and the CC50 (AD-293 cells [6]) is listed as > 10 µM. For the same compound, the EC50 [7] was 3.49 ± 0.34 µM, the IC50 (E. faecalis) was 140 ± 11.9 µM and the EC50 [8] was 8.97 ± 1.03 µM.

With “(14α)-(Quinolyl-8′-oxy)-3,19-acetonylidene andrographolide [5a17]” the EC50 [1] was > 10 µM, the CC50 (AD-293 cells [9]) was > 10 µM and the “inhibition rate (%) SA” value (S. aureus) was “(35) %”. For the same compound, the EC50 [3] was > 10 µM, the EC50 [4] was 4.71 ± 0.17 µM and the IC50 (E. faecalis) was 10.4 ± 2.5 µM. The “inhibition rate (%) EC” value (E. coli) was “(44) %”.

With `C=C1CC[C@@H]2[C@](C)(COC(C)=O)[C@H](O)CC[C@@]2(C)[C@@H]1C/C=C1/C(=O)OC[C@@H]1Oc1cccc2cccnc12` [7b1, (14β)-(quinolyl-8′-oxy)-19-acetoxy andrographolide] the EC50 ([1]; Homo sapiens, AD293) was > 10 µM, the CC50 at 24 h [2] was > 10 µM and the inhibition at 250 µM (S. aureus) was 58%. For the same compound, the EC50 ([3]; Homo sapiens, AD293) was 4.91 ± 0.02 µM, the EC50 ([4]; Homo sapiens, AD293) was > 10 µM and the IC50 (E. faecalis; Enterococcus faecalis) was 8.6 ± 0.7 µM. It also gave an inhibition at 250 µM (E. coli) of 60%.

For `C=C1CC[C@@H]2[C@](C)(CO[Si](C)(C)C(C)(C)C)[C@H](O)CC[C@@]2(C)[C@@H]1C/C=C1/C(=O)OC[C@@H]1Oc1cccc2cccnc12` [7b2, (14β)-(quinolyl-8′-oxy)-19-(t-butyldimethylsilyloxy)andrographolide], the inhibition at 250 µM (S. aureus) was 23%, the IC50 (E. faecalis; Enterococcus faecalis) was 26.2 ± 2.8 µM and the inhibition at 250 µM (E. coli) was 24%. The melting point was 149 to 151 °C.

For `C=C1CC[C@H]2[C@@](C)(CCC(=O)[C@@]2(C)COC(C)=O)[C@@H]1C/C=C1/C(=O)OC[C@@H]1Oc1cccc2cccnc12` [8b1, (14β)-(quinolyl-8′-oxy)-3-keto-19-acetoxy andrographolide], the EC50 ([1]; Homo sapiens, AD293) was 4.84 ± 0.31 µM, the CC50 at 24 h [2] was > 10 µM and the inhibition at 250 µM (S. aureus) was 42%. For the same compound, the EC50 ([3]; Homo sapiens, AD293) was > 10 µM, the EC50 ([4]; Homo sapiens, AD293) was > 10 µM and the IC50 (E. faecalis; Enterococcus faecalis) was 7.6 ± 0.8 µM. For the same compound, the inhibition at 250 µM (E. coli) was 34%.

With `C=C1CC[C@@H]2[C@](C)(CO)[C@H](O)CC[C@@]2(C)[C@@H]1C/C=C1/C(=O)OC[C@H]1O` [compound 1, Andrographolide] the EC50 ([1]; Homo sapiens, AD293) was > 10 µM, the CC50 at 24 h [2] was > 10 µM and the EC50 ([3]; Homo sapiens, AD293) was > 10 µM. For the same compound, the EC50 ([4]; Homo sapiens, AD293) was > 10 µM.

For `C=C1CCC2C(C)(CO)C(O)CCC2(C)C1CC=C1C(=O)OCC1Oc1cccc2cccnc12` (stereo not drawn) [6a17, (14α)-(Quinolyl-8′-oxy)andrographolide], the EC50 [1] was > 10 µM, the CC50 (AD-293 cells [9]) was > 10 µM and the “inhibition rate (%) SA” value (S. aureus) was “(66) %”. The EC50 [3] was > 10 µM, the EC50 [4] was 5.62 ± 0.13 µM and the IC50 (E. faecalis) was 16.3 ± 2.1 µM. For the same compound, the “inhibition rate (%) EC” value (E. coli) was “(70) %”.

With `C=C1CCC2C(C)(CO)C(O)CCC2(C)C1CC=C1C(=O)OCC1Oc1cccnc1[N+](=O)[O-]` (stereo not drawn) [6b15, (14β)-(2′-Nitro-pyridinyl-3′-oxy)andrographolide] the “inhibition rate (%) SA” value (S. aureus; 250 µM) was “(41) %”, the IC50 (E. faecalis) was 29.3 ± 2.1 µM and the “inhibition rate (%) EC” value (E. coli) was “(14) %”.

In the case of “(14β)-(2′-Carboxy ethyl ester)phenoxy-3,19-acetonylidene andrographolide [5b8]”, the “inhibition rate SA (symbol /)” value (S. aureus) is reported as “/ (“/”represents no inhibition or lower than 10% inhibition rate at 250 μM of tested compound)”, the “inhibition rate (%) EF” value (E. faecalis) is reported as “(22) %” and the “inhibition rate EC (symbol /)” value (E. coli) is reported as “/ (“/”represents no inhibition or lower than 10% inhibition rate at 250 μM of tested compound)”.

In the case of `C=C1CCC2C3(C)COC(C)(C)OC3CCC2(C)C1CC=C1C(=O)OCC1Oc1cccc(OC)c1` (stereo not drawn) [5b13, (14β)-(3′-Methoxy)phenoxy-3,19-acetonylidene andrographolide], the “inhibition rate SA (symbol /)” value (S. aureus) is reported as “/ (“/”represents no inhibition or lower than 10% inhibition rate at 250 μM of tested compound)”, the “inhibition rate (%) EF” value (E. faecalis) is reported as “(17) %” and the “inhibition rate EC (symbol /)” value (E. coli) is reported as “/ (“/”represents no inhibition or lower than 10% inhibition rate at 250 μM of tested compound)”.

In the case of `C=C1CCC2C3(C)COC(C)(C)OC3CCC2(C)C1CC=C1C(=O)OCC1Oc1cccc2cccnc12` (stereo not drawn) [5b17, (14β)-(Quinolyl-8′-oxy)-3,19-acetonylidene andrographolide], the EC50 [1] is reported as 2.85 ± 0.07 µM, the CC50 (AD-293 cells [9]) is reported as > 10 µM and the “inhibition rate (%) SA” value (S. aureus) is reported as “(27) %”. It also gave an EC50 [3] of 2.45 ± 0.49 µM, an EC50 [4] of 6.35 ± 0.77 µM and an IC50 (E. faecalis) of 19.3 ± 2.3 µM. For the same compound, the “inhibition rate (%) EC” value (E. coli) was “(47) %”.

In the case of “(14β)-(Quinolyl-4′-oxy)-3,19-acetonylidene andrographolide [5b16]”, the “inhibition rate SA (symbol /)” value (S. aureus) is reported as “/ (“/”represents no inhibition or lower than 10% inhibition rate at 250 μM of tested compound)”, the IC50 (E. faecalis) is reported as 15.5 ± 4.2 µM and the “inhibition rate EC (symbol /)” value (E. coli) is reported as “/ (“/”represents no inhibition or lower than 10% inhibition rate at 250 μM of tested compound)”.
